Laboratory results: ChEMBL document CHEMBL3301472, “MMV Malaria Box HIV and cytotoxicity screening”

How the values were obtained:
[1] = MMV: MTT Cytotoxicity Assay Day 7 pi of Assay #6 (compound washed out Day 1 pi), U87-CD4-CCR5 cells, % cell death @ 5mM compound; assay type: toxicity, cell-based; details: human, u87-cd4-ccr5, 5000 µM
[2] = MMV: MTT Cytotoxicity Assay Day 3 pi, U87-CD4-CXCR4 cells, % cell death @ 5mM compound; assay type: toxicity, cell-based; details: human, u87-cd4-cxcr4, 5000 µM
[3] = MMV: MTT Cytotoxicity Assay Day 7 pi of Assay #10 (NO washout), U87-CD4-CCR5 cells, % cell death @ 5mM compound; assay type: toxicity, cell-based; details: human, u87-cd4-ccr5, 5000 µM
[4] = MMV: MTT Cytotoxicity Assay Day 3 pi, U87-CD4-CCR5 cells, % cell death @ 5mM compound; assay type: toxicity, cell-based; details: human, u87-cd4-ccr5, 5000 µM
[5] = MMV: MTT Cytotoxicity Assay Day 7 pi of Assay #7 (compound washed out Day 1 pi), U87-CD4-CXCR4 cells, % cell death @ 5mM compound; assay type: toxicity, cell-based; details: human, u87-cd4-cxcr4, 5000 µM
[6] = system: Human immunodeficiency virus 1; assay: MMV: HIV NL4-3 CXCR4-tropic replication-competent virus, NO washout, P24 ELISA Day 7 pi, U87-CD4-CXCR4, % inhibition at 5 mM compound; assay type: functional; set-up: dose or concentration left out as unconfirmed; details: Human immunodeficiency virus 1, NL4-3, U87.CD4.CXCR4, 168 h
[7] = system: Human immunodeficiency virus 1; assay: MMV: HIV CXCR4-tropic env NL4-3 pseudovirus assay produces luciferase signal in lieu of replicating viral particles Day 3 pi, U87-CD4-CXCR4, % inhibition at 5 mM compound; assay type: functional; set-up: dose or concentration left out as unconfirmed; details: Human immunodeficiency virus 1, NL4-3, U87.CD4.CXCR4, 72 h
[8] = MMV: MTT Cytotoxicity Assay Day 7 pi of Assay #11 (NO washout), U87-CD4-CXCR4 cells, % cell death @ 5mM compound; assay type: toxicity, cell-based; details: human, u87-cd4-cxcr4, 5000 µM
[9] = system: Human immunodeficiency virus 1; assay: MMV: HIV JRFL CCR5-tropic replication-competent virus, virus & compound washed out Day 1 pi, P24 ELISA Day 7 pi, U87-CD4-CCR5, % inhibition at 5 mM compound; assay type: functional; set-up: dose or concentration left out as unconfirmed; details: Human immunodeficiency virus 1, JR-FL
[10] = system: Human immunodeficiency virus 1; assay: MMV: HIV NL4-3 CXCR4-tropic replication-competent virus, virus & compound washed out Day 1 pi, P24 ELISA Day 7 pi, U87-CD4-CXCR4, % inhibition at 5 mM compound; assay type: functional; set-up: dose or concentration left out as unconfirmed; details: Human immunodeficiency virus 1, NL4-3, U87.CD4.CXCR4

| Compound | % Cell Death [1] | % Cell Death [2] | % Cell Death [3] | % Cell Death [4] | % Cell Death [5] | inhibition [6] | inhibition [7] | % Cell Death [8] | inhibition [9] | inhibition [10] |
| --- | --- | --- | --- | --- | --- | --- | --- | --- | --- | --- |
| CCCc1cc(O)c2c3c(c(=O)oc2c1)CN(C)CC3 | -8 | 44 | 45 | 22 | 57 | 6% | 4% | 40 |  |  |
| CCCC(c1nnnn1C1CCCCC1)N1CCN(C(=O)c2ccco2)CC1.Cl (centres undefined) | -14 | 12 | -2 | -3 | -21 | 7% |  | 34 |  |  |
| COc1cccc(Cn2c(Oc3ccccc3)nc3c2c(=O)n(C)c(=O)n3C)c1 | 32 | 15 | 39 | -1 | 3 | 9% |  | 32 |  |  |
| COc1ccccc1C(=O)ON=C(N)Cc1cccc2ccccc12 | -17 | 47 | 43 | 23 | 42 | 0% | 1% | -11 |  |  |
| CCCn1c(=N)c(C(=O)NC2CCCCC2)cc2c(=O)n3cccc(C)c3nc21 | 0 | 35 | 43 | 29 | -17 | 4% |  | -51 |  |  |
| CC(C)CCNCC(O)Cn1c2ccccc2c2ccccc21.Cl (centres undefined) | -10 | 32 | -11 | 6 | -6 | 1% |  | -6 |  |  |
| Cc1c(C)n(CC(O)CNC2CCCCC2C)c2ccccc12 (centres undefined) | -11 | 18 | -14 | -17 | -17 | 7% |  | -68 |  |  |
| CSC1=NC(=Nc2c(C)cccc2C)C2(CCC(C(C)(C)C)CC2)N1c1ccc(Cl)cc1 (centres undefined) | 1 | 6 | 12 | 3 | -6 | 9% |  | 0 |  |  |
| O=C1c2ccc3c4c(ccc(c24)C(=O)N1CCCCO)C(=O)N(CCCCO)C3=O | 16 | 27 | 61 | 39 | -43 | 2% |  | -30 |  |  |
| Cc1ccc(S(=O)(=O)c2c(COC(=O)c3cccc(C)c3)c(-c3ccccc3)nn2C)cc1 | 5 | 22 | 16 | 27 | 22 | 7% |  | 31 | 5% |  |
| COCCn1c(C)nc2ccccc2c1=O | -8 | 19 | 14 | 23 | 11 |  |  | 32 | 3% | 2% |
| OC1CCCCC1C1(NC(=S)Nc2ccccc2)CCCCC1 (centres undefined) | -5 | 11 | 4 | 23 | 29 | 8% |  | -25 | 7% |  |
| CCN(CC)CCn1c(=N)n(CC(O)c2ccc(Cl)c(Cl)c2)c2ccccc21.Cl (centres undefined) | 14 | 4 | -29 | 18 | 20 | 0% | 10% | 52 |  |  |
| CC1(c2ccccc2)Nc2ccccc2-c2nc3ccccc3n21 (centres undefined) | -21 | 24 | 29 | 10 | -19 | 4% |  | -43 |  |  |
| CCOc1cc(Cl)c(C(C)NC(=O)c2ccccc2)cc1OCC (centres undefined) | -4 | 34 | 15 | 28 | -6 |  |  | 90 | 0% | 1% |
| COc1cc(OC)c(N(C)C(=O)c2cc3c(s2)-c2ccccc2S(=O)(=O)C3)cc1Cl | 22 | 33 | -2 | 28 | -18 | 2% |  | -30 |  | 7% |
| O=C(O)C(=O)O.Oc1ccccc1CN1CCN(C(c2ccccc2)c2ccccc2)CC1 | 2 | 12 | 22 | 4 | 28 | 0% |  | 56 |  |  |
| Nc1ccn([C@@H]2O[C@H](CO)[C@@H](O)[C@H]2O)c(=O)n1 [CYTIDINE] | -9 | 28 | 26 | -30 | 24 | 6% |  | 0 |  |  |
